From patent US10758534B2 (Vertex Pharmaceuticals Incorporated, priority 2014, dated 2020) come the findings set out here.

T1 sequence (P13569 with tags, fused parts or gaps DEL508-508): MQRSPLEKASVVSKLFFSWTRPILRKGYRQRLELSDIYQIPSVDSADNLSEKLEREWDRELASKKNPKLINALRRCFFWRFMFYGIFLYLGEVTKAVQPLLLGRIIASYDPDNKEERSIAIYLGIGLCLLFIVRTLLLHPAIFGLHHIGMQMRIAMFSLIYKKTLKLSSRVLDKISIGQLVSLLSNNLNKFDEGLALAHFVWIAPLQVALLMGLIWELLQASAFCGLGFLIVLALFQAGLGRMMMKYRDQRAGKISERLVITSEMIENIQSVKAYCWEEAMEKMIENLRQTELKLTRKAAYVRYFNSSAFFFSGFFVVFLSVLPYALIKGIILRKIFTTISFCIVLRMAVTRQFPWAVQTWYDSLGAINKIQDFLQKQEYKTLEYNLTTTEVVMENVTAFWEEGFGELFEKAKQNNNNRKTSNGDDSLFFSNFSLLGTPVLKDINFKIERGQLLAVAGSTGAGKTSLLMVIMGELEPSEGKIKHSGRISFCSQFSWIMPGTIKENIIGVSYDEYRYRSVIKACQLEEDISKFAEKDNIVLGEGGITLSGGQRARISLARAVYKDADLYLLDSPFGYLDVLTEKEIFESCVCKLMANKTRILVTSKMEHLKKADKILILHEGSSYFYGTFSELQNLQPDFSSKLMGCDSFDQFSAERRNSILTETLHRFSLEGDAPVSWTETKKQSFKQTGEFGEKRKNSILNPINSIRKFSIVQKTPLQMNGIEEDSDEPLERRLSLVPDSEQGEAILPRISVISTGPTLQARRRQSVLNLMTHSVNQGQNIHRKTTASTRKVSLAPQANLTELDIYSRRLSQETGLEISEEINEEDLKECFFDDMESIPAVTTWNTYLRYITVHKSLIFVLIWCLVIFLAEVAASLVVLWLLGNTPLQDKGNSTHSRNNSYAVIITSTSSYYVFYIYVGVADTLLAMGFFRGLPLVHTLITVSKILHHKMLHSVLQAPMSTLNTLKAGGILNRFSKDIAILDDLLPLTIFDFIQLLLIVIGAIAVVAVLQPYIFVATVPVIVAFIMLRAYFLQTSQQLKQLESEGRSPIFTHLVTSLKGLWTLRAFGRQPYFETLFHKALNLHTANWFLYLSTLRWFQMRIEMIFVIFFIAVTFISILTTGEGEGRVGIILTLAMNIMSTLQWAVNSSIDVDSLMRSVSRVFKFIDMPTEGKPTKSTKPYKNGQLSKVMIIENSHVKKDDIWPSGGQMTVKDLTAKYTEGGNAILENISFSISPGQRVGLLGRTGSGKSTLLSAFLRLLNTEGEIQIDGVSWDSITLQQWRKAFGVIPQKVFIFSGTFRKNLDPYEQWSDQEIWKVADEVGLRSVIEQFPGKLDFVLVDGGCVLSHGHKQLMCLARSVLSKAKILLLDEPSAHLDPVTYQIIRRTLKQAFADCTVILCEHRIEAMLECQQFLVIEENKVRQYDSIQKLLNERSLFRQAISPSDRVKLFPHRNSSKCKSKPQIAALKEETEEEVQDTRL

The first experiment addresses T1, F508del (Homo sapiens, UniProt P13569, DEL508-508).
T1 construct: expressed in transfected cells
The experiment in a line: Protocol 2: FRET membrane potential optical assay (VIPR), identification of correction compounds. The class given is cell-based. The settings on record: F508del CFTR modulator activity; compounds of Table 1; read-out: EC30. A digest of the protocol:
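Mouse NIH3T3 cells, stable F508del; cpd 16 hrs, 37° C., serum-free; pos ctrl 27° C. 16 hrs. Rinse in Krebs Ringers, dye load, then add 10 μM forskolin + 20 μM genistein with Cl^−-free (gluconate) medium; depolarization by FRET voltage dyes.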
On to `Cc1cc(-c2ccc(C(=O)NS(=O)(=O)c3cccc(N)n3)c(N3C[C@@H](C)CC3(C)C)n2)cnc1OC(C)C` [Compound 2170, N-[(6-amino-2-pyridyl)sulfonyl]-6-(6-isopropoxy-5-methyl-3-pyridyl)-2-[(4S)-2,2,4-trimethylpyrrolidin-1-yl]pyridine-3-carboxamide], for which the EC30 is less than 3 µM.

For `COc1ncc(-c2ccc(C(=O)NS(=O)(=O)c3cccnc3N)c(N3C[C@@H](C)CC3(C)C)n2)cc1F` [Compound 2628, N-[(2-amino-3-pyridyl)sulfonyl]-6-(5-fluoro-6-methoxy-3-pyridyl)-2-[(4S)-2,2,4-trimethylpyrrolidin-1-yl]pyridine-3-carboxamide], the EC30 is less than 3 µM.

As for `COc1cccc(-c2ccc(C(=O)NS(=O)(=O)c3cccnc3N)c(N3C[C@@H](C)CC3(C)C)n2)c1OC` [Compound 2436, N-[(2-amino-3-pyridyl)sulfonyl]-6-(2,3-dimethoxyphenyl)-2-[(4S)-2,2,4-trimethylpyrrolidin-1-yl]pyridine-3-carboxamide], the EC30 was less than 3 µM.

Consider `Cc1cc(-c2cnc(N3CC(C)CC3(C)C)c(C(=O)NS(=O)(=O)c3cccc(N)n3)c2)cc(C(C)(C)C)c1` (centres unmarked) [Compound 2322, N-[(6-amino-2-pyridyl)sulfonyl]-5-(3-tert-butyl-5-methyl-phenyl)-2-(2,2,4-trimethylpyrrolidin-1-yl)pyridine-3-carboxamide], for which the EC30 was less than 3 µM.

In the case of `CC1CN(c2ncccc2C(=O)NS(=O)(=O)c2cccc(N3CCN(c4cnccn4)CC3)n2)C(C)(C)C1` (centres unmarked) [Compound 2254, N—[[6-(4-pyrazin-2-ylpiperazin-1-yl)-2-pyridyl]sulfonyl]-2-(2,2,4-trimethylpyrrolidin-1-yl)pyridine-3-carboxamide], the EC30 lay in the range of 3 to 10 µM.

Consider `C[C@@H]1CN(c2nc(-c3cccc(NCC(C)(C)C)n3)ccc2C(=O)NS(=O)(=O)c2cccnc2N)C(C)(C)C1` [Compound 2500, N-[(2-amino-3-pyridyl)sulfonyl]-6-[6-(2,2-dimethylpropylamino)-2-pyridyl]-2-[(4S)-2,2,4-trimethylpyrrolidin-1-yl]pyridine-3-carboxamide], for which the EC30 was less than 3 µM.

Regarding `C[C@@H]1CN(c2nc(-c3cc(F)ccc3O)ccc2C(=O)NS(=O)(=O)c2cccnc2N)C(C)(C)C1` [Compound 2046, N-[(2-amino-3-pyridyl)sulfonyl]-6-(5-fluoro-2-hydroxy-phenyl)-2-[(4S)-2,2,4-trimethylpyrrolidin-1-yl]pyridine-3-carboxamide], the concentration for an effect of 30% (EC30) was less than 3 µM.

In the case of `CC(C)COc1cc(F)cc(-c2ccc(C(=O)NS(=O)(=O)c3cccc(N)n3)c(N3CCC(C)CC3(C)C)n2)c1` (centres unmarked) [Compound 2581, N-[(6-amino-2-pyridyl)sulfonyl]-6-(3-fluoro-5-isobutoxy-phenyl)-2-(2,2,4-trimethyl-1-piperidyl)pyridine-3-carboxamide], the concentration for an effect of 30% (EC30) was less than 3 µM.

On to `CC1CN(c2ncccc2C(=O)NS(=O)(=O)c2cccc(Oc3ccc(OC(C)(C)C)cc3)n2)C(C)(C)C1` (centres unmarked) [Compound 2739], for which the EC30 was less than 3 µM.

Turning to `CC1CN(c2ncccc2C(=O)NS(=O)(=O)c2cccc(OC3CCC(C(C)C)CC3)n2)C(C)(C)C1` (centres unmarked) [Compound 2173, N—[[6-(4-isopropylcyclohexoxy)-2-pyridyl]sulfonyl]-2-(2,2,4-trimethylpyrrolidin-1-yl)pyridine-3-carboxamide], the EC30 was less than 3 µM.

With `C[C@@H]1CN(c2nc(-c3cccc(F)c3F)ccc2C(=O)NS(=O)(=O)N2CC[C@H](N)C2)C(C)(C)C1` [Compound 2110, N-[(3S)-3-aminopyrrolidin-1-yl]sulfonyl-6-(2,3-difluorophenyl)-2-[(4S)-2,2,4-trimethylpyrrolidin-1-yl]pyridine-3-carboxamide], the EC30 was more than 10 µM.

Staying with this experiment, now noted: Table 3; compounds of Table 1 as modulators of CFTR activity; protocol not stated.
For the compound `CC(C)(C)c1ccc(C(=O)NS(=O)(=O)c2cccc(N)n2)c(N2CCCCC2)n1` [Compound 571, N-[(6-amino-2-pyridyl)sulfonyl]-6-tert-butyl-2-(1-piperidyl)pyridine-3-carboxamide], the EC30 result was “++ (“++” means between 3 uM and 10 uM)”.

On to `Cc1nc(OCC(C)C)ccc1-c1ccc(C(=O)NS(=O)(=O)c2cccc(N)n2)c(N2CC(C)CC2(C)C)n1` (centres unmarked) [Compound 616, N-[(6-amino-2-pyridyl)sulfonyl]-6-(6-isobutoxy-2-methyl-3-pyridyl)-2-(2,2,4-trimethylpyrrolidin-1-yl)pyridine-3-carboxamide], for which the EC30 result is listed as “+++ (“+++” means <3 uM)”.

Consider `Cc1cc(C)c(Oc2nc(-c3ccc(C(C)C)cc3)ccc2C(=O)NS(=O)(=O)c2cccc(N)n2)c(C)c1` [Compound 164, N-[(6-amino-2-pyridyl)sulfonyl]-6-(4-isopropylphenyl)-2-(2,4,6-trimethylphenoxy)pyridine-3-carboxamide], for which the EC30 entry was “+++ (“+++” means <3 uM)”.

Consider `CC(C)COc1cc(F)cc(-c2ccc(C(=O)NS(=O)(=O)c3cccc(N)n3)c(N3CCCC3(C)C)n2)c1` [Compound 361, N-[(6-amino-2-pyridyl)sulfonyl]-2-(2,2-dimethylpyrrolidin-1-yl)-6-(3-fluoro-5-isobutoxy-phenyl)pyridine-3-carboxamide], for which the EC30 entry is given as “+++ (“+++” means <3 uM)”.

Turning to `Cc1cc(C)c(CN2Cc3cccc(O)c3C2(C)C(=O)NS(=O)(=O)c2cccc(N)n2)c(C)c1` (centres unmarked) [Compound 394, N-[(6-amino-2-pyridyl)sulfonyl]-7-hydroxy-1-methyl-2-[(2,4,6-trimethylphenyl)methyl]isoindoline-1-carboxamide], the EC30 result is listed as “+++ (“+++” means <3 uM)”.

For the compound `Cc1cc(C)c(Cn2nc(C(C)(C)C)cc2C(=O)NS(=O)(=O)c2ccccc2C#N)c(C)c1` [Compound 266, 5-tert-butyl-N-(2-cyanophenyl)sulfonyl-2-[(2,4,6-trimethylphenyl)methyl]pyrazole-3-carboxamide], the EC30 result is “+++ (“+++” means <3 uM)”.

Turning to `COc1cccc(-c2ccc(C(=O)NS(=O)(=O)c3ccc[nH]c3=O)c(N3[C@H](C)CC[C@@H]3C)n2)n1` [Compound 781, 2-[(2S,5R)-2,5-dimethylpyrrolidin-1-yl]-6-(6-methoxy-2-pyridyl)-N-[(2-oxo-1H-pyridin-3-yl)sulfonyl]pyridine-3-carboxamide], the EC30 entry is reported as “+ (“+” means greater than 10 uM)”.

As to `CC(C)Oc1ccc(-c2ccc(C(=O)NS(=O)(=O)c3cccc(N)n3)c(N3CCCCC3)n2)cn1` [Compound 567, N-[(6-amino-2-pyridyl)sulfonyl]-6-(6-isopropoxy-3-pyridyl)-2-(1-piperidyl)pyridine-3-carboxamide], the EC30 result is “++ (“++” means between 3 uM and 10 uM)”.

As to `COc1ccccc1S(=O)(=O)NC(=O)c1cc2ccccc2n1Cc1c(C)cc(C)cc1C` [Compound 183, N-(2-methoxyphenyl)sulfonyl-1-[(2,4,6-trimethylphenyl)methyl]indole-2-carboxamide], the EC30 result is listed as “+++ (“+++” means <3 uM)”.

On to `CCOc1cccc2c1CN(Cc1c(C)cc(C)cc1C)C2(C)C(=O)NS(=O)(=O)c1ccc[nH]c1=O` (centres unmarked) [Compound 410, 4-ethoxy-1-methyl-N-[(2-oxo-1H-pyridin-3-yl)sulfonyl]-2-[(2,4,6-trimethylphenyl)methyl]isoindoline-1-carboxamide], for which the EC30 entry is given as “+++ (“+++” means <3 uM)”.

On to `COc1cccnc1S(=O)(=O)NC(=O)c1cc(C(C)(C)C)nn1Cc1c(C)cc(C)cc1C` [Compound 44, 5-tert-butyl-N-[(3-methoxy-2-pyridyl)sulfonyl]-2-[(2,4,6-trimethylphenyl)methyl]pyrazole-3-carboxamide], for which the EC30 result was “++ (“++” means between 3 uM and 10 uM)”.

With `Cc1cccc(C)c1Cn1nc(-c2ccc3c(ccn3C)c2)cc1C(=O)NS(=O)(=O)c1ccccc1` [Compound 263, N-(benzenesulfonyl)-2-[(2,6-dimethylphenyl)methyl]-5-(1-methylindol-5-yl)pyrazole-3-carboxamide], the EC30 entry is “+++ (“+++” means <3 uM)”.

Turning to `CC(C)Oc1ccc(-c2ccc(C(=O)NS(=O)(=O)c3cccc(N)n3)c(N3CCc4ccccc43)n2)cn1` [Compound 588, N-[(6-amino-2-pyridyl)sulfonyl]-2-indolin-1-yl-6-(6-isopropoxy-3-pyridyl)pyridine-3-carboxamide], the concentration for an effect of 30% (EC30) result was “++ (“++” means between 3 uM and 10 uM)”.

As to `CNc1cccc(S(=O)(=O)NC(=O)c2cc(C(C)(C)C)nn2Cc2c(C)cc(C)cc2C)c1` [Compound 249, 5-tert-butyl-N-[3-(methylamino)phenyl]sulfonyl-2-[(2,4,6-trimethylphenyl)methyl]pyrazole-3-carboxamide], the EC30 result is “+++ (“+++” means <3 uM)”.

Take `CC(C)(C)c1cccc(-c2nc(C(C)(C)C)ccc2C(=O)NS(=O)(=O)c2cccc(N)c2)c1` [Compound 229, N-(3-aminophenyl)sulfonyl-6-tert-butyl-2-(3-tert-butylphenyl)pyridine-3-carboxamide]: the EC30 result is given as “+++ (“+++” means <3 uM)”.

Regarding `CCOc1ccc(-c2ccc(C(=O)NS(=O)(=O)c3cccc(N)n3)c(Oc3c(C)cc(C)cc3C)n2)cc1F` [Compound 161, N-[(6-amino-2-pyridyl)sulfonyl]-6-(4-ethoxy-3-fluoro-phenyl)-2-(2,4,6-trimethylphenoxy)pyridine-3-carboxamide], the EC30 entry is “+++ (“+++” means <3 uM)”.

With `CCOc1ccc(-c2ccc(C(=O)NS(=O)(=O)c3cccc(N)n3)c(N3CC(C)CC3(C)C)n2)c(C)c1` (centres unmarked) [Compound 536, N-[(6-amino-2-pyridyl)sulfonyl]-6-(4-ethoxy-2-methyl-phenyl)-2-(2,2,4-trimethylpyrrolidin-1-yl)pyridine-3-carboxamide], the EC30 entry was “+++ (“+++” means <3 uM)”.

As to `Cc1cc(C)c(Oc2nc(-c3ccc(C)c(O)c3)ccc2C(=O)NS(=O)(=O)c2cccc(N)n2)c(C)c1` [Compound 793, N-[(6-amino-2-pyridyl)sulfonyl]-6-(3-hydroxy-4-methyl-phenyl)-2-(2,4,6-trimethylphenoxy)pyridine-3-carboxamide], the EC30 result is “+++ (“+++” means <3 uM)”.

The term EC30 denotes the concentration needed for an effect of 30%.
